Earlier results in US12247090B2, “Enzyme-mediated free radical initiating systems for the production of hydrogels and controlled radical polymerization processes” (Duke University, priority 2021, dated 2025).

Test system: rat
Conditions: in vivo, po

SMILES: CC(=O)CC(C)=O [ACAC, acetylacetone]
- LD50: 55 mg/kg
